{"source": "patent US20220338473A1", "about": "“USE OF BENZYL ALCOHOL AS A HERBICIDE” (INNOVI, priority 2019, published 2022)", "experiment_in_all_cases": "Preventative activity (anti-germination), seeds on agar in Petri dish", "type_in_all_cases": "in vivo", "conditions_in_all_cases": "0.35 g sprayed (benzyl alcohol pure, 700 L/Ha; glyphosate diluted at 0.5%)", "key": {"Barley seeds": {"system": "Barley seeds", "method": "(§1) The assays were carried out on seeds sown on a Petri dish with respectively a control mode, an assay with benzyl alcohol and an assay with glyphosate herbicide (Gallup® super 360, Barclay).\n(§2) The application of the product is carried out with a trigger spray bottle which makes it possible to spray 0.35 g of product per spraying, as microdroplets.\n(§3) Seeds are placed on an agar gel in Petri dishes. 16 barley seeds, 24 rapeseed seeds, 18 wheat seeds, 10 maize seeds, 10 soybean seeds are positioned for each test.\n(§4) The seeds are sprinkled either with 0.35 g water (equivalent 700 L/Ha) including 0.35 g pure benzyl alcohol (PanReac AppliChem—ITW Reagents) (equivalent 700 L/Ha pure benzyl alcohol), or with 0.35 g water for the control, or with 0.35 g glyphosate diluted at 0.5% for the glyphosate test.\n(§5) The plants are observed at 0 and 11 days. The percentage of germination is the percentage of germinated seeds evaluated after 11 days."}, "Soybean seeds": {"system": "Soybean seeds", "method": "as §1, §2, §3, §4, §5"}, "Rapeseed seeds": {"system": "Rapeseed seeds", "method": "as §1, §2, §3, §4, §5"}, "Wheat seeds": {"system": "Wheat seeds", "method": "as §1, §2, §3, §4, §5"}, "Maize seeds": {"system": "Maize seeds", "method": "as §1, §2, §3, §4, §5"}, "Dandelion seeds": {"system": "Dandelion seeds"}}}
{"smiles": "O=C(O)CNCP(=O)(O)O", "note": "[Glyphosate, glyphosate, reference compound]", "values": [{"measurement": "Percentage of germination at 11 days", "setting": "Barley seeds", "value": 100, "unit": "%"}, {"measurement": "Percentage of germination at 11 days", "setting": "Soybean seeds", "value": 100, "unit": "%"}, {"measurement": "Percentage of germination at 11 days", "setting": "Rapeseed seeds", "value": 100, "unit": "%"}, {"measurement": "Percentage of germination at 11 days", "setting": "Wheat seeds", "value": 100, "unit": "%"}, {"measurement": "Percentage of germination at 11 days", "setting": "Maize seeds", "value": 100, "unit": "%"}, {"measurement": "Percentage of germination at 11 days", "setting": "Dandelion seeds", "value": 83, "unit": "%"}]}
